In patent publication US20090209510A1, “Novel Method of Treating Hyperlipidemia” (TAKEDA PHARMACEUTICAL COMPANY LIMITED, priority 2005, published 2009):

Experiments:
Hartley guinea pigs [1] = assay: Influence of Compound X and atorvastatin on liver pathological change (Example 4); type: in vivo, guinea pig; settings: for Total cholesterol: guinea pigs on 0.05% cholesterol/10% corn oil diet, 30 mg/kg alone, orally once a day 14 days, average ± standard error (N = 12)
Method: Furthermore, the liver was removed and pathological evaluation was conducted.

Hartley guinea pigs [2] = assay: Lowering effect on plasma cholesterol by use in combination of Compound X and atorvastatin (Example 2); type: in vivo, guinea pig; settings: guinea pigs on 0.05% cholesterol/10% corn oil diet, orally once a day 14 days, average ± standard error (N = 12)
Hartley guinea pigs [3] = settings: plasma, atorvastatin 50 mg/kg alone, orally once a day 7 days, average ± standard error (N = 12)
Method: On the morning of the following day after the 7th administration, blood was collected, and the concentrations of the alanine aminotransferase and the aspartate aminotransferase, which are the markers of hepatic toxicity, in plasma were measured.

Hartley guinea pigs [4] = assay: Influence of Compound X and cerivastatin on change of muscle-deviated enzymes (Example 6); type: in vivo, guinea pig; settings: for increases in the creatinine phosphokinase and myoglobin in plasma: cerivastatin 1 mg/kg alone or with Compound X 30 mg/kg
Hartley guinea pigs [5] = assay: Lowering effect on plasma cholesterol by triple combination of Compound X, simvastatin and ezetimibe (Example 7); type: in vivo, guinea pig; settings: guinea pigs on 0.05% cholesterol/10% corn oil diet, Compound X 30 mg/kg alone, orally once a day 14 days; average ± standard error (N = 6)
Hartley guinea pigs [6] = assay: Lowering effects on plasma cholesterol by use in combination of Compound X and simvastatin (Example 3); type: in vivo, guinea pig; settings: guinea pigs on 0.05% cholesterol/10% corn oil diet, orally once a day 14 days, average ± standard error (N = 12)
Wistar Fatty rats = assay: Lowering effect on plasma triglyceride by use in combination of Compound X and atorvastatin (Example 1); type: in vivo, rat; settings: 30 mg/kg alone, orally once a day for 8 days, overnight fasting, average ± standard error (N = 6)
[7] = plasma, cerivastatin 1 mg/kg alone, orally once a day 14 days, average ± standard error (N = 16)

For `CC(C)c1c(C(=O)Nc2ccccc2)c(-c2ccccc2)c(-c2ccc(F)cc2)n1CC[C@@H](O)C[C@@H](O)CC(=O)O` [Atorvastatin, atorvastatin], the Total cholesterol (Hartley guinea pigs [1]) was 32.9 ± 1.5 mg/dL, the Total cholesterol level (Hartley guinea pigs [2]; 3 mg/kg alone) was 46.1 ± 3.3 mg/dL and the Total cholesterol level (Hartley guinea pigs [2]; 10 mg/kg alone) was 37.4 ± 4.1 mg/dL. For the same compound, the Total cholesterol level (Hartley guinea pigs [2]; 30 mg/kg alone) was 33.5 ± 2.8 mg/dL, the Alanine aminotransferase (Hartley guinea pigs [3]) was 48.9 ± 9.7 I.U./L and the Aspartate aminotransferase (Hartley guinea pigs [3]) was 169.0 ± 39.1 I.U./L.

For `COCc1c(C(C)C)nc(C(C)C)c(/C=C/[C@@H](O)C[C@@H](O)CC(=O)O)c1-c1ccc(F)cc1` [Cerivastatin, cerivastatin], the “increases in the creatinine phosphokinase and myoglobin in plasma” value (Hartley guinea pigs [4]; 14 days) was “Significant increases”, the TC (Hartley guinea pigs [4]; cerivastatin 1 mg/kg alone, orally once a day 14 days, average ± standard error (N = 16)) was 13.2 ± 0.8 mg/dL and the CK (creatinine phosphokinase) (Hartley guinea pigs [4]; [7]) was 4070 ± 800 U/L. The “Mb (myoglobin)” value (Hartley guinea pigs [4]; [7]) was 25.7 ± 2.6 ng/mL.

For `COc1cccc([C@H]2O[C@H](CC(=O)N3CCC(CC(=O)O)CC3)C(=O)N(CC(C)(C)COC(C)=O)c3ccc(Cl)cc32)c1OC` [Compound X, N-[[(3R,5S)-1-(3-acetoxy-2,2-dimethylpropyl)-7-chloro-5-(2,3-dimethoxyphenyl)-2-oxo-1,2,3,5-tetrahydro-4,1-benzoxazepin-3-yl]acetyl]piperidine-4-acetic acid], the Total cholesterol (Hartley guinea pigs [1]) was 40.1 ± 3.1 mg/dL, the “Image of the liver cell necrosis” value (Hartley guinea pigs [1]; guinea pigs, each drug 30 mg/kg, alone or in combination, 14 days) was “not recognized” and the Total cholesterol level (Hartley guinea pigs [2]; 30 mg/kg alone) was 44.4 ± 4.1 mg/dL. The Total cholesterol level (Hartley guinea pigs [5]) was 43.5 ± 4.1 mg/dL, the Total cholesterol level (Hartley guinea pigs [6]; 30 mg/kg alone) was 40.2 ± 4.7 mg/dL and the cholesterol-lowering effect (Hartley guinea pigs [4]; Compound X 30 mg/kg added to cerivastatin 1 mg/kg, 14 days) was “slightly increasing”. The “increases in the creatinine phosphokinase and myoglobin in plasma” value (Hartley guinea pigs [4]; 14 days) was “significantly ameliorated the increases” and the Plasma triglyceride value (Wistar Fatty rats) was 376.5 ± 22.0 mg/dL.

`CCC(C)(C)C(=O)O[C@H]1C[C@@H](C)C=C2C=C[C@H](C)[C@H](CC[C@@H]3C[C@@H](O)CC(=O)O3)[C@H]21` [Simvastatin, simvastatin] showed a Total cholesterol level (Hartley guinea pigs [6]; 10 mg/kg alone) of 41.0 ± 3.6 mg/dL, a Total cholesterol level (Hartley guinea pigs [6]; 30 mg/kg alone) of 43.4 ± 2.2 mg/dL and a Total cholesterol level (Hartley guinea pigs [6]; 100 mg/kg alone) of 31.7 ± 2.6 mg/dL.
